Assays:
Aβ1-40 = Aβ1-40 content in conditioned medium of primary cortico-hippocampal neuron cultures from Tg2576 mice (ELISA; primary and secondary dose-response screening); assay type: cell-based, mouse; conditions: for Ab1-40 (% of ctl): drug 100 μM
Procedure, shortened: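 Primary cortico-hippocampal neurons from embryonic Tg2576 mice were plated at 1.0×10^5 cells per well on poly-D-lysine-coated 96-well plates in Neurobasal with 2% B27, 0.5 mM L-glutamine and 1% penicillin-streptomycin. Cultures received drug in 1% DMSO, and Aβ1-40 in the conditioned medium was measured by BioSource ELISA 24 hours after treatment, relative to vehicle controls.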

Aβ1-42 [1] = assay: Aβ1-42 content in conditioned medium of primary cortico-hippocampal neuron cultures from Tg2576 mice (ELISA; primary and secondary dose-response screening); assay type: cell-based, mouse; conditions: drug 100 μM
Procedure, shortened: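 This screen tested cardiovascular drugs for Aβ-lowering in Tg2576 embryonic cortico-hippocampal neuron cultures plated at 1.0×10^5 cells per well in poly-D-lysine-coated 96-well plates with Neurobasal/B27 medium. Drugs at 100 μM were added directly to the medium in duplicate, with 1% DMSO alone as the control. Conditioned medium was then collected, and its Aβ1-42 level was quantified with BioSource ELISA kits.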

Tg2576 mice [2] = assay: blood pressure (systolic, diastolic, MAP) by tail-cuff; assay type: in vivo, mouse; conditions: Tg2576, 3 weeks
Description: FIG. 1 Tg2576 mice are characterized by normal blood pressure under basal conditions. Baseline measurements of systolic, diastolic blood pressure, and mean arteriole blood pressure (MAP) in ˜11 month old female Tg2576 mice. Strain-, age-, gender-matched WT mice were measured using a commercial blood pressure analysis system designed specifically for small rodents (Hatteras Instruments, NC). Following manufacturer's instruction, mice were temporarily immobilized in a restraining chamber and an inflated tail-cuff wrapped around the tail was used to measure the systolic pressure, diastolic pressure, and MAP. Each blood pressure determination was calculated as the mean of 10 individual measurements per animal (n=6-10 group).
FIG. 6A-C show body weight of mice in response to ˜3 weeks of treatment. […] FIG. 6D-F show the assessment of systolic, diastolic, and MAP blood pressure in Tg2576 mice in response to drug doses below or within the range of those prescribed in hypertension. Blood pressure measurements were conducted using a commercial blood pressure analysis system designed specifically for small rodents (Hatteras Instruments, NC). Following manufacturer's instruction, mice were temporarily immobilized in a restraining chamber and an inflated tail-cuff wrapped around the tail was used to measure pressures. Each blood pressure determination was calculated as the mean of 10 individual measurements per animal. In A-F, values represent mean±SEM values, n=3-5 mice per group. 2-tailed t-test: *P<0.05.
Assessment of blood pressure and glucose utilization. Mouse blood pressure was routinely recorded using a commercial blood pressure analysis system designed specifically for small rodents (Hatteras Instruments, NC). […] Briefly, mice were given a single dose of glucose post-prandially (i.p. 2 g/kg body weight). Blood was collected from the tail-vein periodically over a 2-hour period. Blood glycemic content was assessed using the OneTouch LifeScan System, (LifeScan, Milpitas, Calif.) following the manufacturer's instruction.

Aβ1-42 [3] = conditions: Tg2576, short-term dosing, subclinical or clinical concentrations
Description: Cognitive behavioral function was assessed using the Morris water maze (MWM). After completion of the MWM test, blood pressure measurements were quantified as describe in FIG. 1 legends. Following MWM testing and blood pressure assessment, mice were sacrificed for neuropathological assessment. […] C, (inset), total immunoreactive APP content normalized to β-actin signal. In C-D, bar graphs represent group mean±SEM, n=6-10 mice per group.
(§1) FIG. 7. […] Bar graphs represent group mean±SEM, n=3 mice per group. 2-tailed t-test: *P<0.05.
(§2) Assessment of AD-type amyloid neuropathology in Tg2576 mice. For quantitative assessment of Aβ peptide in the brain, frozen pulverized tissue was homogenized in 5.0 M guanidine buffer, diluted (1:10) in phosphate-buffered saline containing 0.05% (v/v) Tween-20 and 1 mM Pefabloc protease inhibitors (Roche Biochemicals, Indianapolis, Ind.), and centrifuged for 20 min at 4° C. […] Serum Aβ content was analyzed using the same ELISA Kit, following manufacturer instructions.

α-secretase = conditions: Tg2576, propranolol-HCL, neocortex
Description: (§3) Brain samples were homogenized in supplied buffers. Homogenate was then added to secretase-specific APP peptide conjugated to the reporter molecules EDANS and DABCYL. […] Cleavage of APP peptide by secretase physically separates the EDANS and DABCYL reporter molecules, allowing for the release of a fluorescent signal. The level of secretase enzymatic activity is proportional to the fluorometric reaction in the homogenate (R & D Systems).

β-secretase = β-secretase (Mus musculus, UniProt P56818); conditions: Tg2576, propranolol-HCL, neocortex
Sequence of β-secretase (P56818 46-501): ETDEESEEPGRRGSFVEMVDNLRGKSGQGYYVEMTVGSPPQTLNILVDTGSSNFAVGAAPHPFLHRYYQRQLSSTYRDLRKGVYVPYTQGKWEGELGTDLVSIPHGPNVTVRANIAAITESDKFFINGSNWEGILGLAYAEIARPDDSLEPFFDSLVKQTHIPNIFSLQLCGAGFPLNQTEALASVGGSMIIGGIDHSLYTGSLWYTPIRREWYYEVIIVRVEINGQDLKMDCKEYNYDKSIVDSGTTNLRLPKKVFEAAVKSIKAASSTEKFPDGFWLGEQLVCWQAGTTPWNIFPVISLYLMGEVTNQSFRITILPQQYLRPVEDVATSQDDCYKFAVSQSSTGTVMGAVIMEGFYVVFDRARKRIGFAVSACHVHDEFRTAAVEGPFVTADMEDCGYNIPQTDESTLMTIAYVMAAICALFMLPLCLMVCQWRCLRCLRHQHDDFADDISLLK
Description: as §3

γ-secretase = conditions: Tg2576, propranolol-HCL, neocortex
Description: as §3

Aβ1-42 and Aβ1-40 = Aβ1-42 and Aβ1-40 content in peripheral blood (plasma, serum) by ELISA; assay type: in vivo, mouse
Description: as §1, §2

[4] = propranolol-HCL detection in brain and plasma (LC-MS); assay type: in vivo, mouse; conditions: Tg2576, 10 mg/kg/day in drinking water, three weeks
Description: In this short-term dosing study, Tg2576 mice were treated with propranolol-HCL for three-weeks at a concentration ˜3 fold lower than used for treatment of hypertension (10 mg/kg/day delivered in the drinking water). At the time of sacrifice, emicerebellum (pool from N=3 per group) was homogenized 0.4 M perchloric acid, centrifuged (3,000×g; 15 min), and the […] layer evaporated by heating (Botterblom et al., 1993), while the residual diethyl-ether and acidic aqueous layer was used for analysis. Plasma from propranolol-HCL treated mice (pooled, n=3 per group) was extracted using a modified protocol (Martin et al., 2004) mixing equal volumes of plasma in 0.1% NaOH. Propanolol-HCL was then extracted by ethyl acetate and centrifuged. The acidic […] layers were then dried, samples were analyzed by tandem liquid chromatography—mass spectrometry, and concentration was determined against an internal standard, in a range of quantification of n between 1-1,000 ng/ml.

Aβ peptides = assay: Aβ peptide profile in the brain by IP-MS; conditions: Tg2576, 10 or 60 mg/Kg/day, 3 weeks
Tg2576 mice [5] = assay: tolerability: body weight, fluid consumption, glucose tolerance
[6] = stability of valsartan salt (solid, aqueous; TLC); assay type: physicochemical; conditions: 50 and 200 mg/L, 3-10 week old solutions, room temperature, dark
Description: The solution is cooled to room temperature slowly without external cooling to discourage precipitation of the drug.
The solution was then cooled to room temperature slowly without external cooling to discourage precipitation of the drug. […] Quality was assessed in 3-10 week old solutions stored at room temperature in dark compartments. Drinking solutions for the in vivo treatments were freshly prepared twice a week. Liquid consumption and animal body weight were monitored weekly throughout the study.

[7] = Primary Screening, table sorted by Aβ1-40
[8] = primary screening, Tg2576 neuron cultures, table sorted by Aβ1-42

stability of drinking solutions by TLC analysis [6] | Compound | Ab1-40 (% of ctl) (Aβ1-40; [7]) | reduced Aβ1-40 (Aβ1-40; primary screening, <85% of ctl) | Ab1-40 (% of ctl) (Aβ1-40; [8]) | Ab1-42 (% of ctl) (Aβ1-42 [1]; [7]) | Ab1-42 (% of ctl) (Aβ1-42 [1]; [8]) | systolic, diastolic, MAP blood pressure (Tg2576 mice [2]; doses within the range used for hypertension) | systolic, diastolic, MAP blood pressure (Tg2576 mice [2]; doses ~3 fold below the minimal hypertension dose) | steady state levels of Aβ1-42 in hippocampal formation or cerebral cortex (Aβ1-42 [3]) | α-secretase activity in the brain (α-secretase) | β-secretase activity in the brain (β-secretase) | γ-secretase activity in the brain (γ-secretase) | plasma Aβ1-42 levels (and Aβ1-40) (Aβ1-42 and Aβ1-40; Tg2576, doses ~3 fold lower than minimal hypertension dose) | plasma Aβ1-42 (and Aβ1-40) (Aβ1-42 and Aβ1-40; Tg2576, within the dosage range prescribed for hypertension) | level in the cerebellum [4] | Aβ1-34, Aβ1-37, Aβ1-38, Aβ1-39, Aβ1-40 in the brain (IP-MS) (Aβ peptides) | Aβ1-42 content in the neocortex (IP-MS) (Aβ peptides) | fluid intake (Tg2576 mice [5]; Tg2576, short-term dosing) | tolerability (body weight) (Tg2576 mice [5]; Tg2576, short-term, 3 weeks, doses ~3 fold below or within hypertension range, drinking water)
– | CC(C)NCC(O)COc1cccc2ccccc12.Cl (racemic) [Propranolol Hydrochloride (+/−)] | 65.2 % of ctl | reduced Aβ1-40 | 65.2 % of ctl | 93.4 % of ctl | 93.4 % of ctl | decreased systolic, diastolic, and MAP blood pressure | did not significantly influence either systolic, diastolic or MAP blood pressure | significantly reduced steady state levels of Aβ1-42 | no detectable change | selective decrease in β-secretase activity | no detectable change | prevented plasma accumulation of Aβ1-42 levels | lowering responses were found | nM levels | dose-dependent reduction of most of the detectable Aβ species | dose dependent decrease in Aβ1-42 content | did not significantly influence the amount of fluid intake | well-tolerated
no change in the recovered compound | CCCCC(=O)N(Cc1ccc(-c2ccccc2-c2nnn[nH]2)cc1)[C@H](C(=O)O)C(C)C [Sodium valsartan] | – | – | – | – | – | – | – | – | – | – | – | – | – | – | – | – | – | –
